Source: patent publication US10071095B2, “1,2,4-triazolo [4,3-A] pyridine derivatives and their use for the treatment of neurological and psychiatric disorders” (JANSSEN PHARMACEUTICALS, INC., priority 2009, dated 2018)

Biological target: T1, human mGluR2 receptor (Homo sapiens, UniProt Q14416)
T1 construct: expressed in transfected cells; host or cells: CHO cells
Assay: [35S]GTPγS binding assay, positive allosteric modulation (GTPγS-PAM) in presence of EC20 glutamate
Type: biochemical
Details: in presence of glutamate at EC20, average pEC50 if more experiments, ‡ means tested once; for EC50: read-out: GTPγS - hR2 PAM pEC50 (converted)
Method: [^35S]GTPγS Binding Assay
The [^35S]GTPγS binding assay is a functional membrane-based assay used to study G-protein coupled receptor (GPCR) function whereby incorporation of a non-hydrolysable form of GTP, [^35S]GTPγS (guanosine 5′-triphosphate, labelled with […] ^35S), is measured. The G-protein α subunit catalyzes the exchange of guanosine 5′-diphosphate (GDP) by guanosine triphosphate (GTP) and on activation of the GPCR by an agonist, [^35S]GTPγS, becomes incorporated and cannot be cleaved to continue the exchange cycle (Harper (1998) Current Protocols in Pharmacology 2.6.1-10, John Wiley & Sons, Inc.). […] Here we describe the use of the [^35S]GTPγS binding assay using membranes from cells transfected with the human mGluR2 receptor and adapted from Schaffhauser et al. ((2003) Molecular Pharmacology 4:798-810) for the detection of the positive allosteric modulation (PAM) properties of the compounds of this invention.
CHO-cells were cultured to pre-confluence and stimulated with 5 mM butyrate for 24 h, prior to washing in PBS, and then collected by scraping in homogenisation buffer (50 mM Tris-HCl buffer, pH 7.4, 4° C.). Cell lysates were homogenized briefly using an ultra-turrax homogenizer. The homogenate was centrifuged at 16,000 RPM (Sorvall RC-5C plus rotor SS-34) for 10 minutes and the supernatant discarded. The pellet was resuspended in 5 mM Tris-HCl, pH 7.4 and centrifuged again (18,000 RPM, 20 min, 4° C.). The final pellet was resuspended in 50 mM Tris-HCl, pH 7.4 and stored at −80° C. in appropriate aliquots before use. Protein concentration was determined by the Bradford method (Bio-Rad, USA) with bovine serum albumin as standard.
Measurement of mGluR2 positive allosteric modulatory activity of test compounds was performed as follows. Test compounds and glutamate were diluted in assay buffer containing 10 mM HEPES acid, 10 mM HEPES salt, pH 7.4, 100 mM NaCl, 3 mM MgCl2 and 10 μM GDP. Human mGlu2 receptor-containing membranes were thawed on ice and diluted in assay buffer supplemented with 14 μg/ml saponin. Membranes were pre-incubated with compound alone or together with a predefined (˜EC20) concentration of glutamate (PAM assay) for 30 min at 30° C. After addition of [^35S]GTPγS (f.c. 0.1 nM) microplates were shaken briefly and further incubated to allow [^35S]GTPγS incorporation on activation (30 minutes, 30° C.). Final assay mixtures contained 7 μg of membrane protein in 10 mM HEPES acid, 10 mM HEPES salt, pH 7.4, 100 mM NaCl, 3 mM MgCl2, 10 µM GDP and 10 μg/ml saponin. Total reaction volume was 200 μl. Reactions were terminated by rapid filtration through Unifilter-96 GF/B filter plates (Packard, Meriden, Conn.) using a 96-well Packard filtermate harvester. Filters were washed 6 times with ice-cold 10 mM NaH2PO4/10 mM Na2HPO4, pH 7.4. Filters were then air-dried, and 40 μl of liquid scintillation cocktail (Microscint-O) was added to each well. Membrane-bound radioactivity was counted in a Microplate Scintillation and Luminescence Counter from Packard.
The concentration-response curves of representative compounds of the present invention-obtained in the presence of EC20 of mGluR2 agonist glutamate to determine positive allosteric modulation (PAM)—were generated using the Lexis software interface (developed at J&J).

T1 sequence (Q14416 19-872): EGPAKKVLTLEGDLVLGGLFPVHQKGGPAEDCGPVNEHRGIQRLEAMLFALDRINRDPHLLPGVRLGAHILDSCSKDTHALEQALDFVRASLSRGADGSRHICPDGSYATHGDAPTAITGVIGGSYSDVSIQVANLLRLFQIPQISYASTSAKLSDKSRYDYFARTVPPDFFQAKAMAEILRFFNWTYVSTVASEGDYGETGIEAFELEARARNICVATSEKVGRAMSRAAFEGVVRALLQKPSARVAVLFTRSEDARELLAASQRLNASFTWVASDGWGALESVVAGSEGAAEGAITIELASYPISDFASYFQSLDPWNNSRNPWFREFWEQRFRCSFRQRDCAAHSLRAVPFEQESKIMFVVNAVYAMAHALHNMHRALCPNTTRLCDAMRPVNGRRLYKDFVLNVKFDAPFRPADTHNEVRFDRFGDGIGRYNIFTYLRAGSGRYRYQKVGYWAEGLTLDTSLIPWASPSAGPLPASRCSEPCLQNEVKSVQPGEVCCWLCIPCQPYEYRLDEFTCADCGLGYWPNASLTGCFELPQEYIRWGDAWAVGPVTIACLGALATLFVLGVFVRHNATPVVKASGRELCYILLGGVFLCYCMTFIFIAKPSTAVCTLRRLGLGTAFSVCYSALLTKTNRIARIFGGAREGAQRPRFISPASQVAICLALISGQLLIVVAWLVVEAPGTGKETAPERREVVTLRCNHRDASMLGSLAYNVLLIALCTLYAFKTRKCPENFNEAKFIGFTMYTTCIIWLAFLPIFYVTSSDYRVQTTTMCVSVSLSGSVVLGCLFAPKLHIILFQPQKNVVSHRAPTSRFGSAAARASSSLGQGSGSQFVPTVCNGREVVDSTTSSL

GTPγS - hR2 PAM pEC50 | EC50 | Compound
7.06 |  | Fc1ccc(N2CCN(c3ccn4c(CC5CC5)nnc4c3C(F)(F)F)CC2)c(F)c1 [compound 196]
5.95‡ |  | Fc1cc(CN2CCN(c3ccn4c(CC5CC5)nnc4c3Cl)CC2)cc(C(F)(F)F)c1 [compound 280]
6.42 |  | CCc1nnc2c(Cl)c(N3CCC(c4ccccc4)CC3)ccn12 [compound 25]
 | 132 nM | CCOCc1nnc2c(Cl)c(N3CCC(c4ccccc4)CC3)ccn12 [compound 5, 8-Chloro-3-(ethoxymethyl)-7-(4-phenyl-1-piperidinyl)-1,2,4-triazolo[4,3-a]pyridine]
 | 39.8 nM | CC(C)(O)c1ccccc1C1CCN(c2ccn3c(CC4CC4)nnc3c2Cl)CC1 [compound 7, 2-[1-[8-Chloro-3-(cyclopropylmethyl)-1,2,4-triazolo[4,3-a]pyridin-7-yl]-4-piperidinyl]-α,α-dimethyl-benzenemethanol]
6.47‡ |  | FC(F)(F)c1c(N2CCC(Oc3cccnc3)CC2)ccn2c(CC3CC3)nnc12 [compound 167]
8.35‡ |  | COc1cccc(F)c1C1CCN(c2ccn3c(CC(F)(F)F)nnc3c2C#N)CC1 [compound 51]
5.63‡ |  | CCOCc1nnc2c(Cl)c(N3CCN(c4ccccc4)C(C)(C)C3)ccn12 [compound 103]
5.79‡ |  | Fc1cc(F)cc(CN2CCN(c3ccn4c(CC5CC5)nnc4c3Cl)CC2)c1 [compound 179]
6.92 |  | FC(F)(F)c1c(N2CCC(Oc3ccccn3)CC2)ccn2c(CCC3CC3)nnc12 [compound 129]
7.51 |  | COc1c(F)cccc1C1CCN(c2ccn3c(CC(F)(F)F)nnc3c2C#N)CC1 [compound 27]
7.59 |  | CCCc1nnc2c(C(F)(F)F)c(N3CCC4(CC3)OC(C)(C)c3ccccc34)ccn12 [compound 113]
5.93‡ |  | CCCc1nnc2c(Cl)c(N3CCN(c4ccc(F)cc4F)CC3)ccn12 [compound 95]
7.82‡ |  | CC1(c2cccc(F)c2)CCN(c2ccn3c(CC4CC4)nnc3c2C(F)(F)F)CC1 [compound 197]
6.08‡ |  | FC1(F)CCN(C2CCN(c3ccn4c(CC5CC5)nnc4c3C(F)(F)F)CC2)CC1 [compound 238]
6.76 |  | C[C@H]1CN(c2ccn3c(CC(F)(F)F)nnc3c2Cl)CCN1c1cc(F)cc(F)c1 [compound 191]
6.46‡ |  | CCc1nnc2c(C(F)(F)F)c(N3CCC4(CC3)COc3ccccc34)ccn12 [compound 89]
6.07‡ |  | N#Cc1c(N2CCN(C3CCC(C(F)(F)F)CC3)CC2)ccn2c(CC3CC3)nnc12 (centres unmarked) [compound 45]
6.67 |  | N#Cc1c(N2CCC(F)(c3ccccc3)CC2)ccn2c(CC3CC3)nnc12 [compound 40]
6.9 |  | Fc1ccc(N2CC3(CCN(c4ccn5c(CC6CC6)nnc5c4C(F)(F)F)CC3)C2)c(F)c1 [compound 201]
7.27 |  | Fc1ccc(N2C[C@@H]3CN(c4ccn5c(CC6CC6)nnc5c4Cl)C[C@@H]3C2)c(F)c1 [compound 186]
5.91‡ |  | FC(F)(F)c1c(N2CCC(c3ccccc3)C2)ccn2c(CC3CC3)nnc12 (centres unmarked) [compound 174]
7.52 |  | FC(F)(F)c1cccc(C2CCN(c3ccn4c(CC5CC5)nnc4c3Cl)CC2)c1 [compound 39]
7‡ |  | Fc1cnc(N2CCN(c3ccn4c(CC5CC5)nnc4c3C(F)(F)F)CC2)c(F)c1 [compound 359]
 | 3.55 nM | CC1(C)OC2(CCN(c3ccn4c(CC5CC5)nnc4c3C(F)(F)F)CC2)c2ccc(F)cc21 [compound 200, 1′-[3-(Cyclopropylmethyl)-8-(trifluoromethyl)-1,2,4-triazolo[4,3-a]pyridin-7-yl]-5-fluoro-3,3-dimethyl-spiro[isobenzofuran-1(3H),4′-piperidine]]
7.26 |  | FC(F)(F)Cc1nnc2c(Cl)c(N3CCC(c4ccccc4)CC3)ccn12 [compound 22]
6.19 |  | Cc1c(N2CCC(c3ccccc3)(C(F)(F)F)CC2)ccn2c(CC3CC3)nnc12 [compound 187]

GTPγS - hR2 PAM pEC50 | EC50 | Compound
6.95 |  | N#Cc1c(N2CCC(F)(c3ccccc3)CC2)ccn2c(CC(F)(F)F)nnc12 [compound 54]
6.41 |  | Cc1cc(OC2CCN(c3ccn4c(CC5CC5)nnc4c3C(F)(F)F)CC2)ccn1 [compound 165]
6.94 |  | CCCc1nnc2c(C(F)(F)F)c(N3CCC4(CC3)COc3ccccc34)ccn12 [compound 87]
6.78 |  | FC(F)(F)c1c(N2CC[C@H](Oc3ccccc3)C2)ccn2c(CC3CC3)nnc12 [compound 152]
6.63 |  | C[C@@H]1CN(c2ccn3c(CC(F)(F)F)nnc3c2Cl)CCN1c1cc(F)cc(F)c1 [compound 192]
7.35 |  | N#Cc1c(N2CCC(c3ccccc3)CC2)ccn2c(CC3CCC3)nnc12 [compound 34]
6.18 |  | CCCc1nnc2c(Cl)c(N3CCC4(CC3)COc3ccccc34)ccn12 [compound 88]
7.27 |  | COc1cccnc1C1CCN(c2ccn3c(CC4CC4)nnc3c2C(F)(F)F)CC1 [compound 91]
6.5 |  | CCc1nnc2c(Cl)c(N3CCC4(CC3)OCc3ccccc34)ccn12 [compound 102]
6.03‡ |  | O=C1N(c2ccc(F)cc2F)CC12CCN(c1ccn3c(CC4CC4)nnc3c1Cl)CC2 [compound 213]
6.55‡ |  | CCCc1nnc2c(C(F)(F)F)c(N3CCC4(CC3)OC(F)(F)c3ccccc34)ccn12 [compound 142]
6.42 |  | CC(C)OCc1nnc2c(Cl)c(N3CCC(F)(c4ccccc4)CC3)ccn12 [compound 127]
7.69 |  | CC1(c2ccc(F)cc2)CCN(c2ccn3c(CC4CC4)nnc3c2C(F)(F)F)CC1 [compound 194]
7.3 |  | CC(C)OCc1nnc2c(C(F)(F)F)c(N3CCC(c4ccccc4)CC3)ccn12 [compound 122]
6.93 |  | Cc1cccnc1OC1CCN(c2ccn3c(COC(C)C)nnc3c2C(F)(F)F)CC1 [compound 162]
6.8 |  | Cc1cc(C2CCN(c3ccn4c(CC5CC5)nnc4c3C(F)(F)F)CC2)ccn1 [compound 199]
6.33 |  | N#Cc1c(N2CCN(Cc3cccc(C(F)(F)F)c3)CC2)ccn2c(CC(F)(F)F)nnc12 [compound 60]
6.5 |  | Fc1ccc(N2CC3(CCN(c4ccn5c(CC6CC6)nnc5c4Cl)CC3)C2)c(F)c1 [compound 210]
6.67‡ |  | Clc1c(N2CCC(n3ccc4ccccc43)CC2)ccn2c(CC3CC3)nnc12 [compound 259]
7.13 |  | N#Cc1c(N2CCC(c3ccccc3)CC2)ccn2c(CC3CC3)nnc12 [compound 13, 3-(cyclopropylmethyl)-7-(4-phenyl-1-piperidinyl)-1,2,4-triazolo[4,3-a]pyridine-8-carbonitrile]
7.24‡ |  | Fc1ccc(COC2CCN(c3ccn4c(CC5CC5)nnc4c3C(F)(F)F)CC2)c(F)c1 [compound 279]
7.55 |  | Cc1cccnc1OC1CCN(c2ccn3c(CC4CC4)nnc3c2C(F)(F)F)CC1 [compound 68]
8.26 |  | FC(F)(F)c1c(N2CCC(c3ccccc3)CC2)ccn2c(CC3CCC3)nnc12 [compound 185]
6.65 |  | FC(F)(F)c1c(N2CCN(c3ncccn3)CC2)ccn2c(CC3CC3)nnc12 [compound 64]
7.25 |  | N#Cc1c(N2CCC(c3ccccc3)CC2)ccn2c(CC(F)(F)F)nnc12 [compound 20]
5.68‡ |  | Clc1c(N2CCC3(CC2)COc2cccnc23)ccn2c(CC3CC3)nnc12 [compound 161]
